Measured values: patent US6346539B1, “Treatment of skin conditions” (BTG International Limited, priority 1998, dated 2002)
Marks after values point to notes of the source that are not given here.

Key:
[1] = test system: human melanocytes; assay: Proliferation of human melanocytes cultured in petri dishes, haemocytometer count; type: cell-based
Protocol: (§1) For the second protocol, subconfluent human melanocytes were subcultured in a Ø60 mm petri dishes (28 cm^2, Falcon) with RPMI 1640 basic medium supplemented with FBS (10%), CT (1 nM), bFGF (100 pM) and endothelin 1 (1 nM). The initial plating density was 10,000 cells/cm^2, with 5 ml medium per dish. Cells were incubated for 2-3 hours in 10% CO2, humidified atmosphere, at 37° C., followed by addition of piperine solution in to the dishes, making the final concentrations of 0, 1, 5, 10 and 100 μM. Cells in the above supplemented medium lacking endothelin 1 were also set up as a negative control. Three dishes were used for each treatment and the culture was maintained for 5 days before cells were harvested with trypsinisation and counted with a haemocytometer chamber. For melanin production experiment, the harvested cells were centrifuged and pelleted. After carefully removing the medium, NaOH (1 M) was used to solubilized the cell pellets and optical density read at 475 nm in a Perkin-Elmer UV spectrophotometer (model UV/VIS Lambda 2). The melanin content was calculated by using a regression equation y=0.005+0.005× corresponding to the calibration curve for synthetic melanin.

[2] = test system: human melanocytes; assay: Melanin production of human melanocytes cultured in petri dishes; type: cell-based; details: 5 days
Protocol: as §1

[3] = test system: Melan-a; assay: Effects of piperine and TPA on growth of Melan-a (panel of cell types); type: cell-based, mouse; details: piperine 0.1 and 1 μM (FIG. 4)
Protocol: (§2) Cells of mouse melan-a cell line (passage number 18-24), a first known line of non-tumorigenic pigmented mouse melanocytes were maintained in a flask (Costar, Cambridge, Mass., USA) using RPMI 1640 (ICN, Costa, Mesa, Calif., USA) as a basic medium. For microplate proliferation assays, subconfluent melan-a cultures were trypsinized (0.25% trypsin at 37° C. for 5-10 min) and inoculated with a repeater-pipettor (Finn pipette, Labsystems, Finland) into 96-well microtiter plates (Costar, Cambridge, Mass., USA). The plates were incubated at 37° C. in a 10% CO2, 90% air humidified atmosphere for the stated length of time. At the end of the incubation, an SRB assay was performed. Briefly, cells attached to the bottom of the plate were fixed by addition of cold trichloroacetic acid (TCA, 4° C., Aldrich, Dorset, UK) on the top of the growth medium (final TCA 20% w/v). The plate was placed at 4° C. for 1 hour before being gently washed five times with tap water. It was allowed to dry in air, or aided with a hair dryer to speed up the drying process, then 50 μl of 4% w/v SRB dissolved in 1% acetic acid in water was added to each well for 30 min. […] The plate was shaken for 15 min on a gyratory shaker followed by reading the optical density (OD) at 550 nm in a microplate spectrophotometer (Anthos Labtec HT3, version 1.06). […]

[4] = test system: FM21E human melanocytes; assay: Effects of piperine and TPA on growth of human melanocytes, 24-well plate, SRB assay; type: cell-based
Protocol: (§3) In order to determine the specificity of piperine, a panel of different cell types were employed to facilitate this investigation. These included melan-a, melan-c, SVK14, CSM, XB2, SC1, B16F10, IM9, CACO2, Swiss 3T3 cell lines and normal human lymphocytes. TPA (20 nM) was also tested on these cells.
For the first protocol, subconfluent human melanocytes maintained in a Ø100 mm petri dish were subcultured into two 24-well plates (Falcon) using basic culture medium of RPMI 1640 supplemented with FBS (10%), bFGF (100 pM), CT (1 nM) and endothelin 1 (1 nM). The initial plating density was 20,000 cells/cm^2 (38,200 cells/well) with each well containing 1000 μl medium. After incubation in a 10% CO2, humidified atmosphere, at 37° C. for 2-3 hours to allow the attachment of the cells, piperine in 500 μl medium was added into wells to made up final concentrations of 0, 1, 5, 10 and 100 μM. Cells only in the medium with above supplement lacking of endothelin 1 were also set up as negative control. Six replicates were used in each group of treatment, and culture was incubated for 5 days before the cells were harvested by fixing with cold TCA (final concentration 20%) and processed with SRB assay. The solubilized SRB dye solution was transferred to a 96-well plate for optical density reading.

[5] = test system: B16F10 mouse melanoma; assay: Effects of piperine and TPA on growth of B16F10 (panel); type: cell-based
Protocol: as §3

[6] = test system: FM21E Melanoblast; assay: Effects of piperine and TPA on growth of human melanoblasts, SRB assay; type: cell-based
Protocol: as §3
Human melanoblasts in culture in this experiment were established from human foetal skin. Subconfluent melanoblasts maintained in MCDB 153 medium supplemented with 10% FBS, 10 ng/ml stem cell factor (SCF) and 1 nM endothelin 3 were subcultured and inoculated into 96-well microplate with 6×10^3 cells/100 μl/well. After incubation in the 10% CO2, humidified atmosphere, at 37° C. for 3-4 hours to allow the attachment of the cells on the plate, piperine dissolved in MeOH and water was added into the wells. The final concentrations of piperine were 1, 5, 10, 100 μM, with TPA (20 nM) as positive control. Six replicates were used in each group of treatment, with 12 wells used for vehicle control. The incubation was conducted for 5 days before cells were harvested by fixing with cold trichloroacetic acid (TCA, at 4° C., final concentration 20% v/v), and evaluated for cell number using an SRB assay. […] Growth in the presence of piperine and TPA was expressed as % of control incubations containing no piperine or TPA. […]

[7] = test system: melan-a cells; assay: Proliferation of melan-a cells counted with haemocytometer; type: cell-based, mouse; design: unit not given here; details: 20 nM TPA; 4 days
Protocol: Melan-a cells were plated in petri dishes (Ø35 mm, Nunclon, Denmark) with a plating density of 2×10^4/ml and Piper nigrum extract at concentrations of 0.01 and 0.1 mg/ml. A negative control (cells in medium only) and positive TPA (20 nM) control were also set up. After 4 days the cells in each dish were harvested and counted with haemocytometer.

[8] = test system: melan-a cells; assay: Effect of RO-31-8220 on growth of melan-a cells with piperine and TPA, SRB assay; type: cell-based, mouse; details: 4 days
Protocol: as §2

## O=C(/C=C/C=C/c1ccc2c(c1)OCO2)N1CCCCC1 [Piperine, (E,E)-1-[5-(1,3-benzodioxol-5-yl)-1-oxo-2,4-pentadienyl]piperidine]
[1]; 5 μM piperine for 5 days, petri dishes
  cell number relative to ET1 (1 nM) control: over twice as many
[1]; ET1 (1 nM) + piperine (1 μM)
  Cell no. (×10^−4) ± SD after cultured for 5 days: 60.83 ± 16.78 ×10^−4
[1]; ET1 (1 nM) + piperine (5 μM)
  Cell no. (×10^−4) ± SD after cultured for 5 days: 78.96 ± 5.63 ×10^−4
[1]; ET1 (1 nM) + piperine (10 μM)
  Cell no. (×10^−4) ± SD after cultured for 5 days: 64.79 ± 13.47 ×10^−4
[1]; ET1 (1 nM) + piperine (100 μM)
  Cell no. (×10^−4) ± SD after cultured for 5 days: 61.04 ± 10.04 ×10^−4
[1]; Homo sapiens, Melanocyte, 120 h, ET1 (1 nM) + piperine (1 μM), 5 days, read-out: % of control (ET1 1 nM)
  activity at 1 µM: 169%
[1]; Homo sapiens, Melanocyte, 120 h, ET1 (1 nM) + piperine (5 μM), 5 days, read-out: % of control (ET1 1 nM)
  activity at 5 µM: 219%
[1]; Homo sapiens, Melanocyte, 120 h, ET1 (1 nM) + piperine (10 μM), 5 days, read-out: % of control (ET1 1 nM)
  activity at 10 µM: 180%
[1]; Homo sapiens, Melanocyte, 120 h, ET1 (1 nM) + piperine (100 μM), 5 days, read-out: % of control (ET1 1 nM)
  activity at 100 µM: 169%
[2]; ET1 (1 nM) + piperine (1 μM)
  Melanin content/10^4 cells: 0.42 ± 0.03 μg
  OD reading ± SD at 475 nm: 0.134 ± 0.014
[2]; ET1 (1 nM) + piperine (5 μM)
  Melanin content/10^4 cells: 0.334 ± 0.01 μg
[2]; ET1 (1 nM) + piperine (10 μM)
  Melanin content/10^4 cells: 0.41 ± 0.07 μg
[2]; ET1 (1 nM) + piperine (100 μM)
  Melanin content/10^4 cells: 0.46 ± 0.001 μg
[3]
  effect on melan-a proliferation: significantly stimulated melan-a proliferation
[4]; 10 μM piperine for 5 days, 24-well plate, ET1 1 nM
  more cells yielded: 36%
[4]; piperine 100 μM, 24-well plate
  effect on the growth of human melanocytes: inhibitory effect
[5]
  effect on B16 mouse melanoma cell line: inhibitory effects
[6]; 100 μM piperine for 5 days
  more cell yield compared to vehicle control: 34%

## tetradecanoyl phorbol acetate [TPA, reference compound]
[4]; TPA 20 nM in the presence of 1 nM endothelin 1
  effect on the growth of human melanocytes: not able to stimulate cell growth
[6]; TPA 20 nM for 5 days
  more cell yield compared to vehicle control: over 50%
[7]
  cell number: 5.0*

## Cn1cc(C2=C(c3cn(CCCSC(=N)N)c4ccccc34)C(=O)NC2=O)c2ccccc21 [RO-31-8220]
[8]; RO-31-8220 0.1-100 nM, piperine 1 μM, TPA 20 nM
  effect of RO-31-8220 on the proliferant effects of piperine and TPA on melan-a cells: effectively inhibited
[8]; concentrations up to 100 nM
  cytotoxic effect of RO-31-8220 alone on melan-a cells: did not have significant cytotoxic effect
